This assay has as its system MRP1 cells, doxorubicin viability shift, 10 uM compound. The assay is described as follows: doxorubicin EC50 increase in MRP-1 cells, dose response, cell-based, doxorubicin EC50 shift (AID 844). The conditions noted are these: for pEC50: measured here: doxorubicin EC50 with compound.

pEC50: −log10 of the molar value. The source made the active and inactive calls. No rule for the calls is given here.

Consider `O=c1oc(-c2cc3ccccc3o2)nc2sc3c(c12)CCCC3`, for which the fold increase in Dox EC50 is 1.17 (inactive) and the pEC50 was 5.20.

Take `CCC(Sc1nccn1C)C(=O)Nc1nnc(C)s1` (stereo unspecified): the fold increase in Dox EC50 is 1.01 (inactive) and the pEC50 is 5.27.

`CCC(=O)N1CCN=C1SCc1ccccc1`: the fold increase in Dox EC50 is 0.74 (inactive) and the negative-log EC50 (pEC50) is 5.40.

As to `CCCN1C(=O)/C(=N\OCC(=O)Nc2ccc(C(C)C)cc2)c2ccccc21`, the fold increase in Dox EC50 is 0.74 (inactive) and the pEC50 was 5.40.

`O=C(/C=C/c1ccc([N+](=O)[O-])cc1)N1CCN(c2ccccc2F)CC1`: the fold increase in Dox EC50 is 0.56 (inactive) and the negative logarithm of the EC50 (pEC50) was 5.52.

As for `Cc1nc(/N=C(\N)NC(=O)N2c3ccccc3Sc3ccccc32)nc2ccccc12`, the fold increase in Dox EC50 was 0.95 (inactive) and the pEC50 was 5.29.

As for `NC(=O)C1(N2CCCCC2)CCN(C(=O)c2cccn3c(=O)c4cc(Cl)ccc4nc23)CC1`, the fold increase in Dox EC50 is 0.7 (inactive) and the negative-log EC50 (pEC50) was 5.42.

In the case of `COc1ccc(C(C)=O)cc1CSc1nnc(Nc2ccccc2C)s1`, the fold increase in Dox EC50 was 0.75 (inactive) and the pEC50 is 5.39.

Turning to `N=c1oc2c3c4c(cc2cc1C(=O)Nc1ccccc1)CCCN4CCC3`, the fold increase in Dox EC50 was 0.43 (inactive) and the pEC50 is 5.63.

Turning to `COc1ccccc1C1C(C(=O)c2sc(C)nc2C)=C(O)C(=O)N1CCN1CCOCC1` (stereo unspecified), the fold increase in Dox EC50 was 0.71 (inactive) and the pEC50 is 5.42.

As to `CCc1ccc(C2CC(c3ccccc3C)n3nc(N)nc3N2)cc1` (stereo unspecified), the fold increase in Dox EC50 was 0.57 (inactive) and the pEC50 is 5.51.

Take `COc1ccccc1NC(=O)c1sc2nc(-c3ccco3)ccc2c1N`: the fold increase in Dox EC50 was 0.85 (inactive) and the pEC50 is 5.34.

Consider `CN1/C(=C\C(=O)c2oc3ccccc3c2N)C(C)(C)c2ccccc21`, for which the fold increase in Dox EC50 is 0.7 (inactive) and the negative-log EC50 (pEC50) is 5.42.

For the compound `C=C(C)C(=O)NC1=NN(c2ccccc2)C(=O)C1`, the fold increase in Dox EC50 was 1.04 (inactive) and the pEC50 is 5.25.

In the case of `COc1ccc(OC)c(-c2cc(C(=O)Nc3c(C)nn(Cc4ccccc4Cl)c3C)no2)c1`, the fold increase in Dox EC50 was 0.55 (inactive) and the pEC50 is 5.52.

As to `CCc1ccc(-c2nc(-c3ccncc3)no2)cc1`, the fold increase in Dox EC50 is 0.89 (inactive) and the pEC50 is 5.32.

Take `CCN(CC)S(=O)(=O)c1ccc2c(c1)nc(SCn1nnc3ccccc3c1=O)n2CC`: the fold increase in Dox EC50 was 0.52 (inactive) and the pEC50 was 5.55.

On to `Cc1ccc(C(c2sc3ncnn3c2O)N2CCC(C)CC2)cc1` (stereo unspecified), for which the fold increase in Dox EC50 was 0.72 (inactive) and the negative logarithm of the EC50 (pEC50) was 5.41.

On to `N#CCSc1nc2cc(C(=O)N3CCC(C(N)=O)CC3)ccc2c2nc3ccccc3n12`, for which the fold increase in Dox EC50 is 0.86 (inactive) and the pEC50 was 5.34.

On to `Cc1ccc(C)c(/C(O)=C2\C(=O)C(=O)N(CCCn3ccnc3)C2c2ccncc2)c1` (stereo unspecified), for which the fold increase in Dox EC50 is 1.17 (inactive) and the pEC50 was 5.20.

On to `CCn1c(COc2ccc(Cl)cc2)nnc1SC1CCc2ccccc2C1=O` (stereo unspecified), for which the fold increase in Dox EC50 was 0.71 (inactive) and the pEC50 was 5.42.

With `CCn1c(COc2ccc(Cl)cc2)nnc1SCc1nc2ccccc2[nH]1`, the fold increase in Dox EC50 is 0.35 (inactive) and the pEC50 was 5.73.

In the case of `O=c1nc2s/c(=C\c3ccc(-c4ccccc4[N+](=O)[O-])o3)c(=O)n2nc1-c1ccccc1`, the fold increase in Dox EC50 was 1.43 (inactive) and the pEC50 is 5.11.

As for `COc1cccc(/C=N/N2C(=O)CSC2=S)c1O`, the fold increase in Dox EC50 was 1.31 (inactive) and the pEC50 was 5.15.

As for `CCCCOC(=O)Nc1ccc(C(C)C)cc1`, the fold increase in Dox EC50 is 0.78 (inactive) and the pEC50 was 5.38.

In the case of `O=C1c2cccc3cccc(c23)C(=O)N1CCN1CCN(CC(O)COc2ccccc2)CC1` (stereo unspecified), the fold increase in Dox EC50 is 0.32 (inactive) and the pEC50 was 5.77.

For the compound `COc1ccc(CNc2nc(NCc3ccc(OC)cc3)n(C(=O)c3ccccc3[N+](=O)[O-])n2)cc1`, the fold increase in Dox EC50 was 0.72 (inactive) and the pEC50 is 5.41.

Consider `COc1cccc(C2CC(c3ccc(Cl)cc3Cl)n3nc(N)nc3N2)c1` (stereo unspecified), for which the fold increase in Dox EC50 was 1.03 (inactive) and the pEC50 is 5.26.

Turning to `COc1cccc(/C=N/NC(=O)C(C)n2nc(C)c([N+](=O)[O-])c2C)c1O` (stereo unspecified), the fold increase in Dox EC50 is 0.33 (inactive) and the negative logarithm of the EC50 (pEC50) was 5.75.

On to `Oc1c(C(c2cccs2)N2CCN(c3ccccc3)CC2)sc2ncnn12` (stereo unspecified), for which the fold increase in Dox EC50 is 0.93 (inactive) and the pEC50 was 5.30.

For the compound `CCC(Sc1nc(-c2ccccc2)c(C#N)c(=O)[nH]1)C(=O)Nc1cc(C)on1` (stereo unspecified), the fold increase in Dox EC50 is 1.56 and the pEC50 was 5.08.

In the case of `COc1ccc(-c2[nH]ncc2-c2cnn(-c3ccccc3)c2)c(O)c1`, the fold increase in Dox EC50 is 0.27 (inactive) and the pEC50 is 5.84.

As to `CCOc1ccc(C2CC(c3ccc(CC)cc3)Nc3nc(N)nn32)cc1` (stereo unspecified), the fold increase in Dox EC50 was 1.24 (inactive) and the pEC50 was 5.17.

As for `Cc1[nH]c2ccccc2c1C(=O)C(=O)NCCC1=CCCCC1`, the fold increase in Dox EC50 is 0.98 (inactive) and the pEC50 was 5.28.

As for `CC(/C=N/NC(=O)c1nn(C)c(C)c1Br)=C\c1ccccc1`, the fold increase in Dox EC50 is 1.25 (inactive) and the negative-log EC50 (pEC50) was 5.17.

As to `O=C(/C(=C/O)N=Nc1ccccc1)c1ccncc1`, the fold increase in Dox EC50 was 1.4 (inactive) and the pEC50 is 5.12.

Consider `Cc1ccc(N/N=C(\C#N)C(N)=S)c(C)c1`, for which the fold increase in Dox EC50 is 0.6 (inactive) and the pEC50 was 5.49.

Turning to `CCN(C(=O)c1cc2cc3ccc(C)cc3nc2o1)c1ccc(OC)cc1`, the fold increase in Dox EC50 is 0.64 (inactive) and the pEC50 was 5.46.

As to `Cc1ccc(S(=O)(=O)N/N=C\c2cn(-c3ccccc3)nc2-c2ccccc2)cc1`, the fold increase in Dox EC50 is 1.38 (inactive) and the pEC50 is 5.13.

As to `CCNc1ccc(C(=O)OCC(=O)c2cc(C)n(Cc3ccc4c(c3)OCO4)c2C)cc1[N+](=O)[O-]`, the fold increase in Dox EC50 is 1.06 (inactive) and the pEC50 is 5.24.

Take `COc1cccc(/C=N\NC(=O)C2=NNC(=O)C2C)c1O` (stereo unspecified): the fold increase in Dox EC50 was 1.2 (inactive) and the pEC50 is 5.19.

On to `COC(=O)N/N=C/c1ccc(-c2cc(Cl)cc(Cl)c2)o1`, for which the fold increase in Dox EC50 was 1.06 (inactive) and the negative-log EC50 (pEC50) was 5.24.

On to `COC(=O)c1ccc(OC)c(CSc2nnc(COc3ccc(Cl)cc3)o2)c1`, for which the fold increase in Dox EC50 is 1.44 (inactive) and the pEC50 was 5.11.

For the compound `COc1ccc(-n2c(C)nc(=O)c(-c3ccccc3)c2C)cc1`, the fold increase in Dox EC50 is 0.83 (inactive) and the pEC50 is 5.35.

As for `CSC1=NP(=S)(SC)N2CCCC2=C1C#N` (stereo unspecified), the fold increase in Dox EC50 is 0.97 (inactive) and the pEC50 is 5.28.

As for `CCOC(=O)C1CCCN(Cc2ccc(OC)cc2OC)C1` (stereo unspecified), the fold increase in Dox EC50 was 0.35 (inactive) and the pEC50 was 5.72.

On to `COc1ccc(N2C(=O)CC(N3CCC(O)(c4cccc(C(F)(F)F)c4)CC3)C2=O)cc1` (stereo unspecified), for which the fold increase in Dox EC50 was 0.89 (inactive) and the pEC50 is 5.32.

For `CCCCCOc1ccc(CSc2ncn[nH]2)cc1`, the fold increase in Dox EC50 was 0.68 (inactive) and the pEC50 was 5.43.

With `CC(O)(CS(=O)(=O)Cc1ccccc1)C(=O)Nc1ccc(C(F)(F)F)cc1` (stereo unspecified), the fold increase in Dox EC50 was 1.27 (inactive) and the pEC50 is 5.17.

As for `CCOc1ccc(NC(=O)CN2C(=O)COc3ccc(Cl)cc32)cc1`, the fold increase in Dox EC50 is 1.33 (inactive) and the pEC50 was 5.14.

As for `Brc1ccc(CSc2ncn[nH]2)cc1`, the fold increase in Dox EC50 is 1 (inactive) and the negative logarithm of the EC50 (pEC50) was 5.27.

In the case of `CCc1c(C)sc(NC(=O)c2cc(CC(C)C)on2)c1C#N`, the fold increase in Dox EC50 is 0.64 (inactive) and the pEC50 is 5.46.

In the case of `O=C(c1cnn2c(C(F)(F)F)cc(-c3cccs3)nc12)N1CCN(C(c2ccccc2)c2ccccc2)CC1`, the fold increase in Dox EC50 was 0.17 (inactive) and the pEC50 was 6.04.

With `CC(C)CCOc1ncnc2c1sc1nc3c(cc12)CSC(C)(C)C3`, the fold increase in Dox EC50 was 0.51 (inactive) and the pEC50 was 5.56.

Turning to `Cn1c(=O)[nH]c(=O)c2c1nc(SCC(=O)Nc1ccccc1)n2Cc1ccccc1`, the fold increase in Dox EC50 is 0.45 (inactive) and the pEC50 is 5.61.

For the compound `COc1ccc(OC)c(-c2cc(C(=O)Nc3c(C)nn(Cc4ccccc4C)c3C)no2)c1`, the fold increase in Dox EC50 is 0.65 (inactive) and the pEC50 is 5.46.

Take `Cc1ccc(N2C(=O)NC(=O)/C(=C\c3ccsc3)C2=O)cc1C`: the fold increase in Dox EC50 is 0.8 (inactive) and the pEC50 is 5.36.

With `c1ccc(-c2ccc(-c3nc(-c4ccncc4)no3)cc2)cc1`, the fold increase in Dox EC50 is 0.41 (inactive) and the pEC50 was 5.66.

As to `N#C/C(=N/Nc1ccccc1F)C(=N)N1CCOCC1`, the fold increase in Dox EC50 was 0.99 (inactive) and the negative-log EC50 (pEC50) is 5.27.

`COc1ccc(/C=C/C(=O)NCc2cnn(C)c2C)cc1COc1ccc(Br)cc1`: the fold increase in Dox EC50 was 0.68 (inactive) and the pEC50 is 5.43.

For the compound `CCOc1ccc(NC(=O)Nc2cc(-c3ccccc3)sc2C(=O)OC)cc1`, the fold increase in Dox EC50 is 0.62 (inactive) and the pEC50 was 5.48.

In the case of `CC(=O)Nc1ccc(-n2c(C)nc(=O)c(-c3ccccc3)c2C)cc1`, the fold increase in Dox EC50 is 0.89 (inactive) and the pEC50 is 5.32.

Consider `S=C(N/N=C/c1ccc(Cl)cc1)N1CCOCC1`, for which the fold increase in Dox EC50 was 1.22 (inactive) and the pEC50 is 5.18.

These data come from PubChem BioAssay AID844 (SRMLSC, 2007).
